Test results reported in US12703679B2, “Sulfone compounds and pharmaceutical compositions thereof, and their therapeutic applications” (Cura Therapeutics, LLC, priority 2019, dated 2026).

How the values were obtained:
Aß40 = test: Attenuating the amyloid β40 level in neurons differentiated from familial Alzheimer's disease patient iPSCs (ELISA); assay type: cell-based, human; conditions: 10 μM test compound, FIG. 3
Procedure: Induced pluripotent stem cells from a familial Alzheimer's disease patient carrying a duplication of the amyloid precursor protein gene were differentiated to neurons using standard protocols. Israel et al., Nature 2012, 482, 216-220. Neural precursor cells were plated on 24-well plates and differentiated to neurons over three weeks. There was an exponential increase in the levels of Aß secreted in these cells starting on Day 4 in culture. […]

Aß40 in CSF = test: Reduction of Aß40 in CSF of Sprague Dawley rats after single dose intravenous and oral administration; assay type: in vivo
Procedure: This non-GLP study had two groups that received compound A1 by intravenous (IV) and oral (PO) administration with 3-6 male rats in each group. Rats received an IV dose of compound A1 at 1 mg/kg. Rats received a PO dose of compound A1 at 10 mg/kg. Plasma samples were collected pre-dose, 0.167 (10 min), 0.5, 1, 2, 4, 6, 8, 12, and 24 h post-dose. CSF samples were collected pre-dose, 0.5, 1, 2, 4, 8, 12, and 24 hours post-dose.

Row | SMILES | decrease of Aß40 relative to untreated cells (PBS) (Aß40; daily treatment, by Day 6 of treatment, iPSC-derived neurons) | reduction of Aß40 relative to untreated cells (PBS) (Aß40; within 24 h, iPSC-derived neurons (APP gene duplication)) [%] | reduction of Aß40 in CSF (Aß40 in CSF; single IV dose 1 mg/kg, rats, by 4 h post administration, FIG. 5) | time Aß40 levels in CSF remained lower than starting levels (Aß40 in CSF; single PO dose 10 mg/kg, male rats, FIG. 4) | decrease of Aß40 in CSF (Aß40 in CSF; single PO dose 10 mg/kg, male rats, by 2 h post administration, FIG. 4)
1 | COc1cc(CS(=O)(=O)c2cccc(C(=O)O)c2)cc(OC)c1 [Compound A2, 3-((3,5-dimethoxybenzyl)sulfonyl)benzoic acid] | greater than 30% | 20 |  |  | 
2 | Cc1ccc(C(F)(F)F)cc1CS(=O)(=O)c1cccc(C(=O)O)c1 [Compound A1, 3-((2-methyl-5-(trifluoromethyl)benzyl)sulfonyl)benzoic acid] |  |  | 20-60% | up to 24 h | up to 50%
